From patent US12484600B2, “Expanded foam for delivery of functional ingredients” (Boehringer Ingelheim Vetmedica GmbH, priority 2020, dated 2025)

Tested on: Staphylococcus aureus NCTC 8325-4
Assay: Growth in LB broth flask culture with or without calcium chloride supplementation (visual growth, terminal plate count)
Assay type: cell-based
Conditions: for critical limit in combination with 0.5% calcium chloride: procedures as for Table 8
Procedure: The test organism is Staphylococcus aureus NCTC 8325-4 as described in the methods and flask cultures are 100 ml of Luria-Bertani broth (LB broth) in 250 ml Erlenmeyer flasks. LB broth is used instead of brain Heart Infusion because it is more defined and limited in mineral content.
A standard inoculum is grown as described in the methods section and adjusted to a viable cell count of […] by dilution in sterile saline, 0.1 ml of this is used to aseptically inoculate 100 ml volumes of test media—the inoculum being […] in the test flask.
To determine the Minimum Inhibitory effect of hexametaphosphate a series of flasks with 100 ml of LB broth were each supplemented with concentrations of hexametaphosphate ranging from 0% W/W to 1% W/W, each flask was inoculated with a standard inoculum to achieve 1×10^3 viable bacterial in the flask, the flasks were incubated at 37° C. in a rotary incubator for 24 hours and evaluated visually for growth at that time.
Following visual evaluation, 0.5% sterile calcium chloride was added to all flasks and incubation continued for a further 24 hours.

## [Ca+2].[Cl-].[Cl-] [Calcium, calcium chloride]
0.5% Calcium, LB broth
  24 H CFU/ml: >10^9 CFU/ml
0.5% calcium chloride supplement alone
  effect on growth: no effect on growth

## O=P1([O-])OP(=O)([O-])OP(=O)([O-])OP(=O)([O-])OP(=O)([O-])OP(=O)([O-])O1.[Na+].[Na+].[Na+].[Na+].[Na+].[Na+] [SHMP, sodium hexametaphosphate]
0.27% SHMP, LB broth
  24 H CFU/ml: ~2 × 10^2 CFU/ml
0.27% hexametaphosphate, 24 hours
  residual viability: 2×10^2
0.5% calcium chloride
  concentrations that remained inhibited post addition of calcium chloride: at least 0.5%
  concentrations with full growth 24 hours post addition of calcium chloride: ≤ 0.27%
0.5% calcium chloride, 0.27% SHMP, 0.375% functional emulsion
  effect on microbial growth under conditions of excess calcium: no inhibitory effect on microbial growth
LB broth, 24 hours, no calcium supplementation
  concentrations at which growth was apparently inhibited: ≥ 0.05%

## O=c1ccn([C@@H]2O[C@H](COP(=O)(O)O)[C@@H](O)[C@H]2O)c(=O)[nH]1 [Uridine monophosphate]
  critical limit in combination with 0.5% calcium chloride: inconclusive

## O=P([O-])([O-])O.[Na+].[Na+] [di-sodium orthophosphate]
  critical limit in combination with 0.5% calcium chloride: 0.75%

## O=P([O-])([O-])O[C@H]1[C@H](OP(=O)([O-])O)[C@H](OP(=O)([O-])[O-])[C@H](OP(=O)([O-])O)[C@@H](OP(=O)([O-])[O-])[C@@H]1OP(=O)([O-])O.[Na+].[Na+].[Na+].[Na+].[Na+].[Na+].[Na+].[Na+].[Na+] [sodium phytate]
  critical limit in combination with 0.5% calcium chloride: 0.2%

## O=C([O-])CC(O)(CC(=O)[O-])C(=O)[O-].[Na+].[Na+].[Na+] [tri-sodium citrate]
  critical limit in combination with 0.5% calcium chloride: 0.5%
